In the assay the target is T1, MMP2 (Homo sapiens, UniProt P08253).
T1 sequence (P08253 110-660): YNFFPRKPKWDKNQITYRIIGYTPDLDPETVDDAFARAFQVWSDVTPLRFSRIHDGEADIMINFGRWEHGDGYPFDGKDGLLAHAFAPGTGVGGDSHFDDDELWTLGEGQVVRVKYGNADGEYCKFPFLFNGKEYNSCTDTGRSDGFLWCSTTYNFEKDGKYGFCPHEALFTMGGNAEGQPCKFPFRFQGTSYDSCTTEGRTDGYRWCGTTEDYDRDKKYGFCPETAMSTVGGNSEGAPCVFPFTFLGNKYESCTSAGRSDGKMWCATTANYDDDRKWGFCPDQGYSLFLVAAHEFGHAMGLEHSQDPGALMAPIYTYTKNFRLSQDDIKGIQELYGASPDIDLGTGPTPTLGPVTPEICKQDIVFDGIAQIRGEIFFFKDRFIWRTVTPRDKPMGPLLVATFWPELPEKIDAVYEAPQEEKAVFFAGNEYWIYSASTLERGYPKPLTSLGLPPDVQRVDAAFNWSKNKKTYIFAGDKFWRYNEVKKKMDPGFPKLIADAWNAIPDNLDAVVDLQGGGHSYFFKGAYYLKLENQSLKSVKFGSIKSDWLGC
Nature of the assay: Inhibitory effects on human MMP2 (Method 1), enzyme assay with MOCAc-Pro-Leu-Gly-Leu-A2pr(Dnp)-Ala-Arg-NH2 substrate, 96-well. Type of assay: biochemical. To be noted: Test Example No. 1-1 (Method 1, 96-well microplate); read-out: Human MMP2, IC50. On the procedure:
In a reaction solution [50 mmol/L Tris-HCl (pH 7.5), 150 mmol/L NaCl, 10 mmol/L CaCl2, 0.05% Brij L23], 100 μg/mL human recombinant MMP2 enzyme and 1 mmol/L 4-Aminophenylmercuric acetate were mixed together, and reacted at 37° C. for 60 minutes. The human MMP2 activated through the reaction was poured into a 96-well microplate to reach a final concentration of 0.7 or 7 ng/mL.

Structures are written as SMILES. pIC50: −log10 of the molar value. *1 amine or outer side, *2 acyl side, *3 side chain or, on linkers, in order; H or OH if unused. Where a SMILES comes first, the peptide text is derived from it. [ ]: non-standard residue; d: D form. The star is where a group is joined. Phenylsulfonyl(4-anisamido) = COc1ccc(C(=O)Nc2ccc(S(=O)(=O)*)cc2)cc1; Benzoyl(4-(4-EtNHCO-PhO)) = CCNC(=O)c1ccc(Oc2ccc(C(=O)*)cc2)cc1; Benzoyl(4-O-C6H4-4-CONHMe) = CNC(=O)c1ccc(Oc2ccc(C(=O)*)cc2)cc1; Benzoyl(4-OPh(4-CONH2)) = NC(=O)c1ccc(Oc2ccc(C(=O)*)cc2)cc1; X1 = O=C(Nc1ccc(S(=O)(=O)*)cc1)c1ccc(OC(F)(F)F)cc1; X4 = NC(=O)CCCCNC(=O)c1ccc(Oc2ccc(C(=O)*)cc2)cc1; X12 = O=S(=O)(c1ccc(-c2cn(-c3ccccc3)nn2)cc1)*; X2 = CCOc1ccc(C(=O)Nc2ccc(S(=O)(=O)*)cc2)cc1; X10 = NC(=O)c1ccc(-c2ccc(S(=O)(=O)*)cc2)cc1; X15 = CC(=O)c1ccc(-c2ccc(S(=O)(=O)*)cc2)cc1; X6 = NCCCCNC(=O)c1ccc(Oc2ccc(C(=O)*)cc2)cc1; Benzoyl(4-OPh) = O=C(c1ccc(Oc2ccccc2)cc1)*; d(γGlu) = O=C(O)[C@@H](CCC(=O)[*:2])N[*:1]; d(βAsp) = O=C(O)[C@@H](CC(=O)[*:2])N[*:1]; NMeW = CN[C@@H](Cc1c[nH]c2ccccc12)C(=O)O; X7 = O=S(=O)(c1ccc(-c2ccc(OCCO)cc2)cc1)*; εLys = N[C@@H](CCCCN[*:1])C(=O)[*:2]; NMeI = CC[C@H](C)[C@H](NC)C(=O)O; NMeE = CN[C@@H](CCC(=O)O)C(=O)O; NMeM = CN[C@@H](CCSC)C(=O)O; NMeV = CN[C@H](C(=O)O)C(C)C; β3hP = O=C(O)C[C@@H]1CCCN1; Orn = NCCC[C@H](N)C(=O)O; Aze = O=C(O)[C@@H]1CCN1; Dab = NCC[C@H](N)C(=O)O; Dap = NC[C@H](N)C(=O)O; Ahx = NCCCCCC(=O)O; Ava = NCCCCC(=O)O; GABA = NCCCC(=O)O

For the molecule `CC[C@H](C)[C@@H](C(=O)N1CCC[C@H]1C(N)=O)N(C)C(=O)[C@H](CC(C)C)NC(=O)[C@H](C)NC(=O)[C@H](CC(=O)O)NC(=O)[C@H](Cc1c[nH]c2ccccc12)N(C)C(=O)CCCNC(=O)c1ccc(Oc2ccccc2)cc1` [Compound 130] ({Benzoyl(4-OPh)-GABA}-[NMeW]DAL[NMeI]P-NH2; N-terminus assumed), the negative-log IC50 (pIC50) (in general, the negative decadic logarithm of the IC50, by convention in mol/L) was 9.44.

`CC[C@H](C)[C@@H](C(=O)N1CCC[C@H]1CC(N)=O)N(C)C(=O)[C@H](CC(C)C)NC(=O)[C@H](CCN)NC(=O)[C@H](CC(=O)O)NC(=O)[C@H](CCC(=O)O)NC(=O)CCCCNC(=O)c1ccc(Oc2ccc(C(=O)NCCCCC(N)=O)cc2)cc1` [Compound 201] ({X4-Ava}-ED[Dab]L[NMeI][β3hP]-NH2; N-terminus assumed): the negative-log IC50 (pIC50) was 8.85.

As to `CC[C@H](C)[C@@H](C(=O)NCCCC[C@H](N)C(N)=O)N(C)C(=O)[C@H](CC(C)C)NC(=O)[C@H](CCN)NC(=O)[C@H](CC(=O)O)NC(=O)[C@H](NC(=O)[C@@H](N)CCCNC(=O)c1ccc(Oc2ccc(C(N)=O)cc2)cc1)[C@H](C)O` [Compound 554] (H-[Orn](Benzoyl(4-OPh(4-CONH2)))[dT]D[Dab]L[NMeI][εLys]-NH2), the pIC50 is 9.05.

Turning to `CC[C@H](C)[C@@H](C(=O)N1CCC[C@H]1CC(N)=O)N(C)C(=O)[C@H](CC(C)C)NC(=O)[C@H](CCN)NC(=O)[C@H](CC(=O)O)NC(=O)[C@H](CCCNC(=N)N)NC(=O)CCCCNC(=O)c1ccc(Oc2ccc(C(=O)NC)cc2)cc1` [Compound 189] ({Benzoyl(4-O-C6H4-4-CONHMe)-Ava}-RD[Dab]L[NMeI][β3hP]-NH2; N-terminus assumed), the negative-log IC50 (pIC50) is 9.07.

As for `CC[C@H](C)[C@@H](C(=O)N1CCC[C@H]1CC(N)=O)N(C)C(=O)[C@H](CC(C)C)NC(=O)[C@H](CN)NC(=O)C[C@@H](NS(=O)(=O)c1ccc(NC(=O)c2ccc(OC)cc2)cc1)C(=O)O` [Compound 692, N-[(2S)-3-amino-1-({(2S)-1-[{(2S,3S)-1-[(2S)-2-(2-amino-2-oxoethyl)pyrrolidin-1-yl]-3-methyl-1-oxopentan-2-yl}(methyl)amino]-4-methyl-1-oxopentan-2-yl}amino)-1-oxopropan-2-yl]-N^2-[4-(4-methoxybenzamido)benzene-1-sulfonyl]-D-asparagine] ({Phenylsulfonyl(4-anisamido)-d(βAsp)}-[Dap]L[NMeI][β3hP]-NH2), the pIC50 was 10.17.

On to `CC[C@H](C)[C@@H](C(=O)N1CCC[C@H]1C(N)=O)N(C)C(=O)[C@H](CC(C)C)NC(=O)[C@H](C)NC(=O)[C@H](CC(=O)O)NC(=O)[C@H](CCC(=O)O)N(C)C(=O)CCCNC(=O)c1ccc(Oc2ccccc2)cc1` [Compound 126] ({Benzoyl(4-OPh)-GABA}-[NMeE]DAL[NMeI]P-NH2; N-terminus assumed), for which the pIC50 is 9.54.

With `CCNC(=O)c1ccc(Oc2ccc(C(=O)NCCCCC(=O)N[C@@H](CCCCN)C(=O)N[C@@H](CC(=O)O)C(=O)N[C@@H](CCN)C(=O)N[C@@H](CC(C)C)C(=O)N(C)[C@H](C(=O)N3CCC[C@H]3CC(N)=O)[C@@H](C)CC)cc2)cc1` [Compound 193] ({Benzoyl(4-(4-EtNHCO-PhO))-Ava}-KD[Dab]L[NMeI][β3hP]-NH2; N-terminus assumed), the negative-log IC50 (pIC50) is 8.77.

`CC(C)C[C@H](NC(=O)[C@H](CCN)NC(=O)CC[C@@H](NS(=O)(=O)c1ccc(NC(=O)c2ccc(OC(F)(F)F)cc2)cc1)C(=O)O)C(=O)N(C)[C@@H](CCC(=O)O)C(=O)N1CCC[C@H]1CC(N)=O` [Compound 704] ({X1-d(γGlu)}-[Dab]L[NMeE][β3hP]-NH2; N-terminus assumed): the pIC50 was 9.38.

As to `CCNC(=O)c1ccc(Oc2ccc(C(=O)NCCCCCC(=O)N[C@@H](CCCNC(=N)N)C(=O)N[C@@H](CC(=O)O)C(=O)N[C@@H](CCN)C(=O)N[C@@H](CC(C)C)C(=O)N(C)[C@H](C(=O)N3CCC[C@H]3CC(N)=O)[C@@H](C)CC)cc2)cc1` [Compound 198] ({Benzoyl(4-(4-EtNHCO-PhO))-Ahx}-RD[Dab]L[NMeI][β3hP]-NH2; N-terminus assumed), the negative-log IC50 (pIC50) is 8.29.

Consider `CC(C)C[C@H](NC(=O)[C@H](CCN)NC(=O)[C@H](CC(=O)O)NC(=O)[C@H](CC(N)=O)NC(=O)CCCCNC(=O)c1ccc(Oc2ccc(C(=O)NCCCCN)cc2)cc1)C(=O)N(C)[C@@H](CCC(=O)O)C(=O)N1CCC[C@H]1CC(N)=O` [Compound 181] ({X6-Ava}-ND[Dab]L[NMeE][β3hP]-NH2; N-terminus assumed), for which the pIC50 is 8.51.

On to `CC[C@H](C)[C@@H](C(=O)N1CCC[C@H]1CC(N)=O)N(C)C(=O)[C@H](CC(C)C)NC(=O)[C@H](C)NC(=O)C[C@@H](NS(=O)(=O)c1ccc(-c2ccc(C(C)=O)cc2)cc1)C(=O)O` [Compound 634, N^2-(4′-acetyl[1,1′-biphenyl]-4-sulfonyl)-N-[(2S)-1-({(2S)-1-[{(2S,3S)-1-[(2S)-2-(2-amino-2-oxoethyl)pyrrolidin-1-yl]-3-methyl-1-oxopentan-2-yl}(methyl)amino]-4-methyl-1-oxopentan-2-yl}amino)-1-oxopropan-2-yl]-D-asparagine] ({X15-d(βAsp)}-AL[NMeI][β3hP]-NH2), for which the pIC50 was 9.89.

Turning to `CC[C@H](C)[C@@H](C(=O)N1CCC[C@H]1C(N)=O)N(C)C(=O)[C@H](CC(C)C)NC(=O)[C@H](C)NC(=O)[C@H](CC(=O)O)NC(=O)[C@H](C(C)C)N(C)C(=O)CCCNC(=O)c1ccc(Oc2ccccc2)cc1` [Compound 119] ({Benzoyl(4-OPh)-GABA}-[NMeV]DAL[NMeI]P-NH2; N-terminus assumed), the pIC50 was 9.77.

`CCOc1ccc(C(=O)Nc2ccc(S(=O)(=O)N[C@H](CCC(=O)N[C@@H](CCN)C(=O)N[C@@H](CC(C)C)C(=O)N(C)[C@@H](CCC(=O)O)C(=O)N3CCC[C@H]3CC(N)=O)C(=O)O)cc2)cc1` [Compound 702] ({X2-d(γGlu)}-[Dab]L[NMeE][β3hP]-NH2; N-terminus assumed): the pIC50 is 9.60.

Turning to `CC[C@H](C)[C@@H](C(=O)N1CCC[C@H]1CC(N)=O)N(C)C(=O)[C@H](CC(C)C)NC(=O)[C@H](C)NC(=O)C[C@@H](NS(=O)(=O)c1ccc(-c2ccc(C(N)=O)cc2)cc1)C(=O)O` [Compound 635] ({X10-d(βAsp)}-AL[NMeI][β3hP]-NH2; N-terminus assumed), the pIC50 is 9.08.

In the case of `CC[C@H](C)[C@@H](C(=O)N1CCC[C@H]1C(N)=O)N(C)C(=O)[C@H](CC(C)C)NC(=O)[C@H](C)NC(=O)[C@H](CC(=O)O)NC(=O)[C@@H]1CCCN1C(=O)CCCNC(=O)c1ccc(Oc2ccccc2)cc1` [Compound 117] ({Benzoyl(4-OPh)-GABA}-PDAL[NMeI]P-NH2; N-terminus assumed), the pIC50 was 9.26.

Consider `CC[C@H](C)[C@@H](C(=O)N1CCC[C@H]1CC(N)=O)N(C)C(=O)[C@H](CC(C)C)NC(=O)[C@H](CN)NC(=O)[C@H](CC(=O)O)NC(=O)[C@@H]1CCN1C(=O)CCCNC(=O)c1ccc(Oc2ccccc2)cc1` [Compound 132] ({Benzoyl(4-OPh)-GABA}-[Aze]D[Dap]L[NMeI][β3hP]-NH2; N-terminus assumed), for which the pIC50 is 9.37.

As for `CC(C)C[C@H](NC(=O)[C@H](CN)NC(=O)C[C@@H](NS(=O)(=O)c1ccc(-c2ccc(OCCO)cc2)cc1)C(=O)O)C(=O)N(C)[C@@H](CCC(=O)O)C(=O)N1CCC[C@H]1CC(N)=O` [Compound 638] ({X7-d(βAsp)}-[Dap]L[NMeE][β3hP]-NH2; N-terminus assumed), the negative-log IC50 (pIC50) is 9.85.

For `CC[C@H](C)[C@@H](C(=O)N1CCC[C@H]1C(N)=O)N(C)C(=O)[C@H](CC(C)C)NC(=O)[C@H](C)NC(=O)[C@H](CC(=O)O)NC(=O)[C@H](CCSC)N(C)C(=O)CCCNC(=O)c1ccc(Oc2ccccc2)cc1` [Compound 122] ({Benzoyl(4-OPh)-GABA}-[NMeM]DAL[NMeI]P-NH2; N-terminus assumed), the pIC50 was 9.80.

Take `CC[C@H](C)[C@@H](C(=O)N1CCC[C@H]1CC(N)=O)N(C)C(=O)[C@H](CC(C)C)NC(=O)[C@H](CCN)NC(=O)CC[C@@H](NS(=O)(=O)c1ccc(-c2cn(-c3ccccc3)nn2)cc1)C(=O)O` [Compound 608, N-[(2S)-4-amino-1-({(2S)-1-[{(2S,3S)-1-[(2S)-2-(2-amino-2-oxoethyl)pyrrolidin-1-yl]-3-methyl-1-oxopentan-2-yl}(methyl)amino]-4-methyl-1-oxopentan-2-yl}amino)-1-oxobutan-2-yl]-N^2-[4-(1-phenyl-1H-1,2,3-triazol-4-yl)benzene-1-sulfonyl]-D-glutamine] ({X12-d(γGlu)}-[Dab]L[NMeI][β3hP]-NH2): the pIC50 was 9.47.

As to `CCNC(=O)c1ccc(Oc2ccc(C(=O)NCCCCC(=O)N[C@@H](CCCNC(=N)N)C(=O)N[C@@H](CC(=O)O)C(=O)N[C@@H](CCN)C(=O)N[C@@H](CC(C)C)C(=O)N(C)[C@H](C(=O)N3CCC[C@H]3CC(N)=O)[C@@H](C)CC)cc2)cc1` [Compound 197] ({Benzoyl(4-(4-EtNHCO-PhO))-Ava}-RD[Dab]L[NMeI][β3hP]-NH2; N-terminus assumed), the pIC50 is 8.59.
